Where two headings read alike, the source gives them in different places. *1 amine or outer side, *2 acyl side, *3 side chain or, on linkers, in order; H or OH if unused. Where a SMILES comes first, the peptide text is derived from it. [ ]: non-standard residue; d: D form. The star is where a group is joined. LeuΨ(S-CHOHCH2)Ala = CC(C)C[C@H](N[*:1])[C@@H](O)C[C@@H](C)C(=O)[*:2]; 5FAM = O=C1OC2(c3ccc(O)cc3Oc3cc(O)ccc32)c2ccc(C(=O)*)cc21; Ahx = NCCCCCC(=O)O
Key:
[1] = molecular target: T1, memapsin 2 (Homo sapiens, UniProt P56817); assay: Inhibition of memapsin 2 cleavage of fluorogenic substrate FS-2 (Ki, Ki apparent, Vi/Vo, % inhibition); assay type: biochemical; conditions: for % Inh (M1/M2): Table 9, ratio of % inhibition memapsin 1 / memapsin 2, 1 or less = greater inhibition of memapsin 2
T1 construct: made in house; host or cells: E. coli
T1 sequence (P56817 41-454): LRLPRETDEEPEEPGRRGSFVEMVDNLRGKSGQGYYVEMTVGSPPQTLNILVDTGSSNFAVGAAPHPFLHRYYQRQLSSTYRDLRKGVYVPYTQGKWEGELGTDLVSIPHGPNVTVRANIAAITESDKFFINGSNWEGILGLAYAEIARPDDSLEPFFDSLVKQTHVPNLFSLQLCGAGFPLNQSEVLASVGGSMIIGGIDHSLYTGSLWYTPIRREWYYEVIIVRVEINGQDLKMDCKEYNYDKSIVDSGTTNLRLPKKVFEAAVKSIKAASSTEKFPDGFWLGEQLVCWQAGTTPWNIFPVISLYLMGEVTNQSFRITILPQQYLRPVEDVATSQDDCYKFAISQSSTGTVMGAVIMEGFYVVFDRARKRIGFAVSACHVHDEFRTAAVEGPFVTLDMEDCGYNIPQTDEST
Procedure: Ki is the inhibition equilibrium constant which indicates the ability of compounds to inhibit the β-secretase activity of memapsin 2 and memapsin 1. […] The K1 value is independent of the substrate, and converted from Ki apparent.
The Vi/Vo values depicted in Table 1 were determined at conditions under which the enzyme and inhibitor concentrations were equal (e.g., about 80 nM, 100 nM).
The relationship of Ki (independent of substrate concentration) to Kiapp is a function of substrate concentration in the assay and the Km for cleavage of the substrate by either memapsin 1 or memapsin 2 by the relationship: Kiapp=Ki(1+[S]/Km).
Ki is the inhibition equilibrium constant which indicates the ability of compounds to inhibit the β-secretase activity of memapsin 2 and memapsin 1. […] The Ki value is independent of the substrate, and converted from Ki apparent.
An aliquot of the inhibitor of known concentration in DMSO was diluted into 1.8 ml 0.1 M NaOAc, pH 4.0. DMSO and added to a final concentration of 10% (v/v), and memapsin 2 (final concentration of 80 nM), followed by a 20 minute equilibration at 37° C. Compounds were evaluated for the ability to inhibit memapsin 1 and memapsin 2 at concentrations between about 10 nM and about 10 μm of inhibitor.
The relationship of Ki (independent of substrate concentration) to Kiapp is a function of substrate concentration in the assay and the Km for cleavage of the substrate by either memapsin 1 or memapsin 2 by the relationship: Kiapp=Ki (1+[S]/Km).

[2] = tested on: plasma Aβ40; assay: Inhibition of Aβ production in APP/F transgenic mouse model of Alzheimer's disease (plasma Aβ40 sandwich ELISA); assay type: in vivo, mice; conditions: for Reduction of plasma Aβ40 / Course of inhibition of plasma Aβ40 over a 24-h period: APP/F mice; for Reduction of plasma Aβ40: about 163 nanomoles i.p., within 30 minutes following injection; for Course of inhibition of plasma Aβ40 over a 24-h period: single i.p. injection; for Blood brain barrier penetration in transgenic mice: concluded from reduction of plasma Aβ
Procedure: Compounds MMI-138, MMI-165, and MMI-185 were synthesized as described above. Compounds were dissolved in 1 ml of dimethyl sulfoxide (DMSO) to a final concentration of about 1 mg/ml for MMI-165 and MMI-185, and about 10 mg/ml for MMI-138. […] Inhibitors were diluted into PBS or H2O immediately prior to injection, as described below. Inhibition constants were determined by methods described by Ermolieff, et al (Biochem. 39:12450-12456 (2000), the teachings of which are incorporated hereby in their entirety).
The tg2576 strain of mice was obtained from Taconic (Germantown, N.Y.). The APP/F strain of mice were obtained by mating the tg2576 mice with the FVB/N strain. To determine presence of the Swedish APP gene in APP/F mice, the DNA from mice was isolated according to the Qiagen Dneasy™ Tissue Kit. PCR (Qiagen kit and protocol) was used to amplify the fragment of DNA corresponding to the human Swedish APP gene. The following primers were used: […]
At the age of three months, animals of the Alzheimer's disease mouse model APP/F were injected intraperitoneally (i.p.) with about 163 nanomoles of either compounds MMI-138 (molecular weight 674 g/mole; 110 μg per animal, n=2), MMI-165 (molecular weight 626 g/mole; 102 μg per animal, n—2), or MMI-185 (molecular weight 686; 112 μg per animal, n—2).
Heparinized capillary tubes collected blood samples from anesthetized animals from either the retro-orbital sinus or from the saphenous vein at specified intervals following injection. The blood samples were transferred to sterile 1.5 mL microcentrifuge tubes, centrifuged at 5,100 RPM for 10 minutes to recover the plasma (supernatant), and stored at −70° C. until analysis for the Aβ40 by Enzyme Linked-Immuno-Sorbent Assay (ELISA).
A sandwich ELISA (BioSource International, Camarillo, Calif.) was used to determine the levels of Aβ40 in plasma samples. The ELISA utilizes a primary antibody specific for human Aβ for the immobilization of the amino-terminus and a detection antibody specific for the carboxy-terminal amino acids of Aβ40. A conjugated secondary antibody was used to detect the ternary complex, using a stabilized chromogen substrate, quantifiable following addition of 1 M HCl, with the optical densities measured at 450 nm. The procedures were followed according to the BioSource protocol. Optical densities were converted to pg/ml quantities of Aβ40 using a linear regression of the optical densities of standards obtained from the commercial kit, to their known concentrations.

[3] = tested on: HEK293 cells; assay: Entry of fluorescently labelled inhibitors into cultured cells (flow cytometry); assay type: cell-based, human; conditions: 10 to 30 minutes incubation
Procedure: Fluorescently labelled inhibitors or fluorescein (Fs) as a control were incubated with suspended cells for time intervals ranging from 10 to 30 minutes. Cells were fixed with paraformaldehyde and permeabilized in 0.2% Tween-20 in PBS for 6 minutes and incubated with anti-fluorescein-Alexa™ 488 antibody (Molecular Probes, Eugene, Oreg.) in order to enhance detection of intracellular inhibitor present from penetration. Flow cytometry (FACSCalibur™) and confocal fluorescent microscopy (Leica TCS NT™) were performed at the Flow and Image Cytometry Lab, OUHSC.

[4] = tested on: plasma Aβ40; assay: Inhibition of Aβ production in tg2576 transgenic mice (plasma Aβ40 ELISA); assay type: in vivo
Procedure: Six-month-old tg2576 mice (n=21) were injected intraperitoneally (i.p.) 200 μg of conjugate CPI-3 or with control DMSO, in 200 μl of PBS. Plasma were collected from anesthetized animals by orbital bleed or sephaneous vein into heparinized capillary tubes and clarified by centrifugation. Plasma A≢ 1-40 levels were determined by capture ELISA (BioSource International, Camarillo, Calif.). The peptide analogue of CPI-3, with an amide group instead of the hydroxyethylene isostere was synthesized by SynPep (Camarillo, Calif.).
Since the conjugate inhibitors can cross the blood brain barrier in vivo, enter cells both in vitro and in vivo, and inhibit Aβ production in vitro, inhibition of Aβ production in vivo was determined. Tg2576 mice, expressing the Swedish mutation of the human amyloid precursor protein (including SEQ ID NO: 11) (Hsiao, K., et al., Science 274:99-102 (1996), the teachings of which are incorporated hereby in their entirety) were injected with CPI-3, which is identical in amino acid sequence to CPI-2 and lacks the amino-terminal fluorescein (FAM) derivative. Blood was collected from tg2576 animals at time intervals following injection of 400 μg of CPI-3.

[5] = four injections at 2 hour intervals
[6] = Table 1, apparent Ki in presence of substrate FS-2, N.I. = no inhibition, read-out: Ki app

CSCC[C@H](NC(=O)OCn1nc(C)cc1C)C(=O)N[C@@H](CC(C)C)[C@@H](O)C[C@@H](C)C(=O)N[C@H](C(=O)NC(C)C)C(C)C [MMI-165]
% Inh (M1/M2) [1]: 0.45 | Reduction of plasma Aβ40 [2]: 46% | Course of inhibition of plasma Aβ40 over a 24-h period [2]: remained nearly constant | Blood brain barrier penetration in transgenic mice [2]: penetrated the blood brain barrier

COCC[C@H](NC(=O)[C@H](CC(C)C)NC(=O)OC(C)(C)C)C(=O)N[C@@H](CC(C)C)[C@@H](O)C[C@@H](C)C(=O)N[C@@H](CC(C)C)C(=O)NC(C)C [MMI-185]
Reduction of plasma Aβ40 [2]: 63% | Course of inhibition of plasma Aβ40 over a 24-h period [2]: appeared to return to initial level | Blood brain barrier penetration in transgenic mice [2]: penetrated the blood brain barrier

CC(C)C[C@H](NC(=O)[C@H](CCC(=O)O)NC(=O)CCCCCNC(=O)c1ccc2c(c1)C(=O)OC21c2ccc(O)cc2Oc2cc(O)ccc21)C(=O)N[C@@H](CC(=O)O)C(=O)N[C@@H](CC(C)C)[C@@H](O)C[C@@H](C)C(=O)N[C@H](C(=O)N[C@@H](CCC(=O)O)C(=O)N[C@@H](Cc1ccccc1)C(=O)NCC(=O)NCC(=O)N[C@H](CCCNC(=N)N)C(=O)N[C@H](CCCNC(=N)N)C(=O)N[C@H](CCCNC(=N)N)C(=O)N[C@H](CCCNC(=N)N)C(=O)N[C@H](CCCNC(=N)N)C(=O)N[C@H](CCCNC(=N)N)C(=O)N[C@H](CCCNC(=N)N)C(=O)N[C@H](CCCNC(=N)N)C(=O)N[C@H](CCCNC(=N)N)C(=O)O)C(C)C [CPI-2] ({5FAM-Ahx}-ELD[LeuΨ(S-CHOHCH2)Ala]VEFGG[dR][dR][dR][dR][dR][dR][dR][dR][dR]-OH)
Penetration of cultured cells (intracellular fluorescence) [3]: readily penetrated cultured cells within minutes

CSCC[C@H](NC(=O)OCn1nc(C)cc1C)C(=O)N[C@@H](CC(C)C)[C@@H](O)C[C@@H](C)C(=O)N[C@H](C(=O)NCc1ccccc1)C(C)C [MMI-138]
% Inh (M1/M2) [1]: 0.10 | Ki for memapsin 2 lower than Ki for memapsin 1 (selectivity) ([1]; memapsin 2 relative to memapsin 1, stated in text): about 60 fold | Reduction of plasma Aβ40 [2]: 57% | Course of inhibition of plasma Aβ40 over a 24-h period [2]: remained nearly constant | Blood brain barrier penetration in transgenic mice [2]: penetrated the blood brain barrier

CC(C)C[C@H](NC(=O)[C@@H](N)CCC(=O)O)C(=O)N[C@@H](CC(=O)O)C(=O)N[C@@H](CC(C)C)[C@@H](O)C[C@@H](C)C(=O)N[C@H](C(=O)N[C@@H](CCC(=O)O)C(=O)N[C@@H](Cc1ccccc1)C(=O)NCC(=O)NCC(=O)N[C@H](CCCNC(=N)N)C(=O)N[C@H](CCCNC(=N)N)C(=O)N[C@H](CCCNC(=N)N)C(=O)N[C@H](CCCNC(=N)N)C(=O)N[C@H](CCCNC(=N)N)C(=O)N[C@H](CCCNC(=N)N)C(=O)N[C@H](CCCNC(=N)N)C(=O)N[C@H](CCCNC(=N)N)C(=O)N[C@H](CCCNC(=N)N)C(=O)O)C(C)C [CPI-3] (H-ELD[LeuΨ(S-CHOHCH2)Ala]VEFGG[dR][dR][dR][dR][dR][dR][dR][dR][dR]-OH; N-terminus and C-terminus assumed)
Ki ([1]; read-out: Ki for memapsin 2): 0.035 µM | Plasma Aβ40 level relative to initial value ([4]; 2 hours following i.p. injection): about one third | Aβ level, average low as % of the average initial value [4, 5]: 29% | Inhibition of plasma Aβ [4, 5]: about 80% | Plasma Aβ40 relative to PBS control two hours following injection ([4]; i.p., various doses): significant dose-dependent reduction | Time of return of plasma Aβ40 to the initial value ([4]; single i.p. injection): ≤ 8 h

CSCC[C@H](NC(=O)[C@@H](NC(=O)OC(C)(C)C)C(C)C)C(=O)N[C@@H](CC(C)C)[C@@H](O)CN(C)C(=O)[C@H](NC(=O)OCc1ccccc1)C(C)C [MMI-061]
Ki [1, 6]: 15500 µM

CC(C)C[C@H](NC(=O)[C@H](CCS(C)(=O)=O)NC(=O)[C@@H](NC(=O)OC(C)(C)C)C(C)C)[C@@H](O)C[C@@H](C)C(=O)N[C@@H](C(=O)NCc1ccccc1)[C@@H](C)O [MMI-073]
% Inh (M1/M2) [1]: 0.73

CSCC[C@H](NC(=O)[C@@H](NC(=O)OC(C)(C)C)C(C)C)C(=O)N[C@@H](CC(C)C)[C@@H](O)C[C@@H](CO)C(=O)N[C@H](C(=O)NCc1ccccc1)C(C)C [MMI-078]
% Inh (M1/M2) ([1]; listed as 78): 0.76

CSCC[C@H](NC(=O)[C@@H](NC(=O)OC(C)(C)C)C(C)C)C(=O)N[C@@H](CC(C)C)[C@@H](O)C[C@@H](C)C(=O)N[C@H]1CCCC[C@@H]1O [MMI-055]
Ki [1, 6]: 631 µM

CC(C)C[C@H](NC(=O)[C@H](CCO)NC(=O)c1cnc2ccccc2c1)[C@@H](O)C[C@@H](C)C(=O)N[C@H](C(=O)N[C@H]1c2ccccc2C[C@H]1O)C(C)C [MMI-049]
Ki [1, 6]: 198 µM

CC(C)C[C@H](NC(=O)[C@H](CCS(C)(=O)=O)NC(=O)[C@@H](NC(=O)OC(C)(C)C)C(C)C)[C@@H](O)C[C@@H](C)C(=O)N[C@@H]1CCCC[C@@H]1O [MMI-060]
Ki [1, 6]: 101 µM
